Consider 1 compound from article PMC7987348, “Structural basis for human TRPC5 channel inhibition by two distinct inhibitors” (eLife, 2021).

As usually defined, the Hill slope is the slope factor of the fitted curve.

For one assay, the target named is T1, hTRPC5 F414M (Homo sapiens, UniProt Q9UL62, F414M).
T1 construct: We use full-length nontagged hTRPC5 construct for FLIPR assay unless indicated otherwise; expressed in transfected cells; host or cells: AD293
T1 sequence (Q9UL62 1-973 F414M): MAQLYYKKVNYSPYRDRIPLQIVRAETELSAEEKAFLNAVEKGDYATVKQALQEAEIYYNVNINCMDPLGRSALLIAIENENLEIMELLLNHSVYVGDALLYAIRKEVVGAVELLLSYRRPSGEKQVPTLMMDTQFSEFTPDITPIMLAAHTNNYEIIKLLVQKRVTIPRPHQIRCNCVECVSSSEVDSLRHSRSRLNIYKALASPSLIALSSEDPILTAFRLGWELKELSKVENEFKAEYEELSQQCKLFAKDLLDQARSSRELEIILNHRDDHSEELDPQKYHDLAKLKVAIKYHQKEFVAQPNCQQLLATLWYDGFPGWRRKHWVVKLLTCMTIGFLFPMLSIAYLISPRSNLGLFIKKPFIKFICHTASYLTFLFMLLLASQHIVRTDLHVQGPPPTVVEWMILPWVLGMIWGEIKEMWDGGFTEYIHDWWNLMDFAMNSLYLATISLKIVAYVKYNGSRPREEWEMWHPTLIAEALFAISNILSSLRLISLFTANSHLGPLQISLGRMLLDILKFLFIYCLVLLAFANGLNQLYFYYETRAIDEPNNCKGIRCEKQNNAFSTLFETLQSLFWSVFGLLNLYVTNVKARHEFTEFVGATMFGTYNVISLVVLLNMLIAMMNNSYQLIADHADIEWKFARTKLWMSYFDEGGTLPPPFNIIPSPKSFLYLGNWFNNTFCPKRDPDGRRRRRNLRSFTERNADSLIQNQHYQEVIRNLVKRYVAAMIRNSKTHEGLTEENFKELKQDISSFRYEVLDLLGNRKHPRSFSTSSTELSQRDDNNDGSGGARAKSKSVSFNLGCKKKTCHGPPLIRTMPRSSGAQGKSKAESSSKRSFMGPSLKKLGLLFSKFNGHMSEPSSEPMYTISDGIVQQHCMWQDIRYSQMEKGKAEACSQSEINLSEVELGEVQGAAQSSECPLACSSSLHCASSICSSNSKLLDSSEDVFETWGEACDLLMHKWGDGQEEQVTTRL
The assay can be described thus: FLIPR calcium assay, hTRPC5 mutant F414M. The assay is classed as cell-based. As for the experimental part:
[…]. Then the suspended cell culture was further diluted for 5.4- to 7-fold with culture medium and seeded onto black well, clear bottom, poly-D-lysine-coated 96-well plate (Costar) and cultured overnight. We use full-length nontagged hTRPC5 construct for FLIPR assay unless indicated otherwise. hTRPC5 plasmids were transfected into AD293 cells (60-80% confluence) with PEI. 30–40 hr post-transfection, culture medium was discarded and cells were incubated with 50 μl per well of 4 μM Rhod-2/AM (AAT Bioquest) in TARODES’s buffer (10 mM HEPES, 150 mM NaCl, 4 mM KCl, 2 mM MgCl2, 2 mM CaCl2, 11 mM glucose, pH 7.4) supplemented with 0.02% Pluronic F-127 (Sigma) for 5 min in dark at room temperature. Then dye was removed and replaced with 50 μl of TARODE’s buffer per well. The application of compounds and detection of intracellular calcium elevation were performed using FLIPR-TETRA (Molecular Devices) at room temperature (25–27°C). Fluorescence signals were read with excitation/emission at 510–545/565–625 nm.
[…]. Then fluorescence was measured for 300 s.
Buffer A contains 2× concentration of working concentration of inhibitor. […]. for control-Min, both buffer A and buffer B were replaced by TARODE’s buffer.
[…]; the average of fluorescence value of last 20 time points was considered as the ‘end fluorescence’. The value of ‘end fluorescence’ minus ‘start fluorescence’ was considered as ‘signal value’ for each well. […].
Three independent experiments were performed on different days (biological replicates), with each experiment containing three replicates (technique replicates).

The test system of a further assay is TRPC3/6. Also noted: method as in Richter et al., 2014. The following applies: ref Richter et al., 2014; cited from earlier work.
In a further assay the target is T2, hTRPC5_1-764 (Homo sapiens, UniProt Q9UL62).
T2 sequence (Q9UL62 1-764): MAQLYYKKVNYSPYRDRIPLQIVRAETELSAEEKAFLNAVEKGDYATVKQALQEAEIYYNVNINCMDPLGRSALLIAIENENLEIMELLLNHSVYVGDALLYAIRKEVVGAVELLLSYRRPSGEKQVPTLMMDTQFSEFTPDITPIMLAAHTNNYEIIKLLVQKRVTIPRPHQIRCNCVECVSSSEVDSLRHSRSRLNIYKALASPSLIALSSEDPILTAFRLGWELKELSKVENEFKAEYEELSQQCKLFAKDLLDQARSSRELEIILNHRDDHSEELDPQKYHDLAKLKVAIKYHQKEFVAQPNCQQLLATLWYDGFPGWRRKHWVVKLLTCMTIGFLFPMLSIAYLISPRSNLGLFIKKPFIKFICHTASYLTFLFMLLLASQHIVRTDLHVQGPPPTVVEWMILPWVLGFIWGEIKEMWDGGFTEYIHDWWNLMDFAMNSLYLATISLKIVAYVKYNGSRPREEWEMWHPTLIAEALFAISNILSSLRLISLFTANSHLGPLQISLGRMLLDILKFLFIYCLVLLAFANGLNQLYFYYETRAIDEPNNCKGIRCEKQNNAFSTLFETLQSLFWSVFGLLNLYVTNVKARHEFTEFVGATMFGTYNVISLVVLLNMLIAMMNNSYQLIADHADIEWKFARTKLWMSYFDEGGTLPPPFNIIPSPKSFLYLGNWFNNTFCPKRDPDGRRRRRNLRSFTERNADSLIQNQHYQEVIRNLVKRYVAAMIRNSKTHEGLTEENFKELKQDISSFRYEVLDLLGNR
The assay can be described thus: FLIPR calcium assay, C-terminally truncated construct hTRPC5_1-764. The following applies: 14 mM extracellular calcium; AD293 cells.

Like-named read-outs stand apart in the source and are kept apart here.

With `Clc1ccc(Cn2c(CN3CCCC3)nc3ccccc32)cc1` [CMZ, clemizole], the Hill slope on hTRPC5 F414M (CMZ) is given as −1.45. Besides, the IC50 was 2.15 µM at hTRPC5 F414M (CMZ, 14 mM extracellular calcium, read-out: IC50) and 2.14 µM at hTRPC5 F414M (CMZ, log of IC50 in μM, logIC50 ± SEM, n = 3, read-out: LogIC50 (converted)). For the same compound, at hTRPC5 F414M (read-out: normalized RFU (% WT), Clemizole 0.200195 μM, 14 mM Ca2+, each column one independent experiment), the remaining activity at 0.200195 µM turned out to be 130%. The remaining activity at 0.400391 µM on hTRPC5 F414M (read-out: normalized RFU (% WT), Clemizole 0.400391 μM, 14 mM Ca2+, each column one independent experiment) came out at 116%. At hTRPC5 F414M (read-out: normalized RFU (% WT), Clemizole 0.800781 μM, 14 mM Ca2+, each column one independent experiment), the remaining activity at 0.800781 µM is 107%. For the same compound, the remaining activity at 6.40625 µM at hTRPC5 F414M (read-out: normalized RFU (% WT), Clemizole 6.40625 μM, 14 mM Ca2+, each column one independent experiment) worked out at 32.1%. Also, in the assay on TRPC3/6, the “fold more potent against TRPC5 than TRPC3/6” value is listed as 10 fold. At hTRPC5_1-764, the “inhibition of hTRPC5_1-764” value was “can be inhibited”.
